Results on one compound are retold here after patent US20240000700A1, “PLANT EXTRACTING METHOD” (GIVAUDAN SA, priority 2020, published 2024).

The subject of the assay is NHEKs. The assay can be described thus: Anti-oxidant activity: ROS production (DCFH probe) under TBP stress. It is filed as cell-based, human. The following applies: TBP 5 mM; positive control at 200 μM, 24 h pre-incubation. On the procedure: NHEKs were seeded in a black plate with a glass bottom at 20′000 cells per well pre-coated with type I collagen. Cells were incubated at 37° C. with 5% CO2 for 24 h. On the next day, the cells were incubated for 24 h with the patchouli extracts and some of the fractions thereof described in examples 1 and 2 above, each at 0.5% (v/v), or Resveratrol (positive control) at 200 μM. After this pre-incubation, the cells were incubated with dichloro-dihydro-fluorescein (DCFH) probe at 50 μM for 30-45 min. The cells were then rinsed two times with PBS and incubated with PBS alone or with PBS containing 5 mM tert-butyl peroxide (TBP) to induce an oxidative stress. Fluorescence reading was performed every 10 min for 1 h, exciting at 488 nm and emitting at 525 nm.

SMILES strings stand for the structures.

`Oc1ccc(C=Cc2cc(O)cc(O)c2)cc1` [Resveratrol]: the “ROS Production [% of TBP, untreated] Average” value was 18 % of TBP, untreated.
